Values of other authors in PMC4191344, “Identification and characterization of Aβ peptide interactors in Alzheimer’s disease by structural approaches” (Frontiers in Aging Neuroscience, 2014).

Tested on: Aβ
Conditions: in vitro; ref Pollio et al., 2008
Excerpt: Early literature was somewhat conflicting explicating the role of the EP24.15 metalloenzyme in the etiology of AD. This enzyme was originally erroneously thought to be the β-secretase activity initiating the processing of the APP into Aβ (Papastoitsis et al., [1994]) prior to the discovery of the beta amyloid cleaving enzyme-1 (BACE-1). The EP24.15 gene is located at a chromosomal locus that is close to a region involved with early onset AD (Meckelein et al., [1996]). […] In older transgenic animals, EP24.15 protein was increased in the hippocampus, supportive of a role in Aβ clearance though there was no attributable mechanism.

Which “inhibition of Aβ toxicity by EP24.15 expression” value does the source give for “EP24.15: soluble, 77 kD metalloendopeptidase in the family of zinc metallopeptidases” here?
Its value is “inhibit the toxicity of Aβ in vitro”.
